PubChem BioAssay AID1918940 (Molecular Pharmacology Branch, DTP, NCI, 2023)

System: NCI-H211 complex spheroid viability
Experiment: Anticancer human tumor NCI-H211 cell line growth inhibition [LSD1];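 note: luminescent viability read after seven days of drug exposure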;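 for viability, T/C: 100% = DMSO vehicle control viability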
Conditions: for IC50: curve of first compound; for viability, T/C: stronger effect = lower value
Method in brief: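 Multicellular complex spheroids of tumor cells with human endothelial cells (HUVEC) and mesenchymal stem cells; the LSD1 inhibitor iadademstat was combined with standard-of-care or investigational agents. Top concentration at or near clinical Cmax, half-log dilutions; final DMSO ≤0.25%.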

[1] = second compound 0.1 µM, first compound 0.0316 µM
[2] = second compound 0.1 µM, first compound 0.1 µM
[3] = second compound 0.1 µM, first compound 0.316 µM
[4] = second compound 0.1 µM, first compound 1 µM
[5] = second compound 0.1 µM, first compound 3.16 µM
[6] = second compound 0.1 µM, first compound 10 µM
[7] = second compound 0.316 µM, first compound 0.0316 µM
[8] = second compound 0.316 µM, first compound 0.1 µM
[9] = second compound 0.316 µM, first compound 0.316 µM
[10] = second compound 0.316 µM, first compound 1 µM
[11] = second compound 0.316 µM, first compound 3.16 µM
[12] = second compound 0.316 µM, first compound 10 µM
[13] = second compound 1 µM, first compound 0.0316 µM
[14] = second compound 1 µM, first compound 0.1 µM
[15] = second compound 1 µM, first compound 0.316 µM
[16] = second compound 1 µM, first compound 1 µM
[17] = second compound 1 µM, first compound 3.16 µM
[18] = second compound 1 µM, first compound 10 µM
[19] = second compound 3.16 µM, first compound 0.0316 µM
[20] = second compound 3.16 µM, first compound 0.1 µM
[21] = second compound 3.16 µM, first compound 0.316 µM
[22] = second compound 3.16 µM, first compound 1 µM
[23] = second compound 3.16 µM, first compound 3.16 µM
[24] = second compound 3.16 µM, first compound 10 µM
[25] = second compound 10 µM, first compound 0.0316 µM
[26] = second compound 10 µM, first compound 0.1 µM
[27] = second compound 10 µM, first compound 0.316 µM
[28] = second compound 10 µM, first compound 1 µM
[29] = second compound 10 µM, first compound 3.16 µM
[30] = second compound 10 µM, first compound 10 µM

Row | Compound | IC50 (second compound 0.1 µM) [µM] | IC50 (second compound 0.316 µM) [µM] | IC50 (second compound 1 µM) [µM] | IC50 (second compound 3.16 µM) [µM] | IC50 (second compound 10 µM) [µM] | viability, T/C [1] [%] | viability, T/C [2] [%] | viability, T/C [3] [%] | viability, T/C [4] [%] | viability, T/C [7] [%] | viability, T/C [8] [%] | viability, T/C [9] [%] | viability, T/C [10] [%] | viability, T/C [13] [%] | viability, T/C [14] [%] | viability, T/C [15] [%] | viability, T/C [16] [%] | viability, T/C [19] [%] | viability, T/C [20] [%] | viability, T/C [21] [%] | also measured
1 | CC(C)c1c(-c2ccccc2)nc2c(C#N)c[nH]n2c1=O + NC1CCC(NC2CC2c2ccccc2)CC1 | > 10 | > 10 | > 10 | > 10 | < 0.0316 | 74.2 | 74.7 | 72 | 81.5 | 84.8 | 81.7 | 72.4 | 72.8 | 69.9 | 80.7 | 77.3 | 60.5 | 46.6 | 56 | 61.6 | viability, T/C [5]: 65.8%; viability, T/C [6]: 85.8%; viability, T/C [11]: 67.2%; viability, T/C [12]: 75.5%; viability, T/C [17]: 62.3%; viability, T/C [18]: 70%; viability, T/C [22]: 65.5%; viability, T/C [23]: 62%; viability, T/C [24]: 60.5%; viability, T/C [25]: 35.2%; viability, T/C [26]: 37.4%; viability, T/C [27]: 32.7%; viability, T/C [28]: 34.9%; viability, T/C [29]: 32.2%; viability, T/C [30]: 32.8%
2 | CC1COCCN1c1cc(-c2ccnn2C)c2ccnc(-c3ccn[nH]3)c2n1 (stereo not given) + NC1CCC(NC2CC2c2ccccc2)CC1 | < 0.00316 | 0.00354 | 0.00326 | < 0.00316 | < 0.00316 | 3.03 | 1.88 | 1.99 | 1.97 | 5.04 | 2.3 | 1.83 | 2.11 | 3.22 | 2.14 | 1.98 | 2.52 | 2.82 | 2.03 | 1.63 | viability, T/C (second compound 0.1 µM, first compound 0.00316 µM): 47%; viability, T/C (second compound 0.1 µM, first compound 0.01 µM): 15.9%; viability, T/C (second compound 0.316 µM, first compound 0.00316 µM): 54.4%; viability, T/C (second compound 0.316 µM, first compound 0.01 µM): 12.7%; viability, T/C (second compound 1 µM, first compound 0.00316 µM): 51.1%; viability, T/C (second compound 1 µM, first compound 0.01 µM): 14.4%; viability, T/C (second compound 3.16 µM, first compound 0.00316 µM): 39.7%; viability, T/C (second compound 3.16 µM, first compound 0.01 µM): 13.1%; viability, T/C [22]: 2.4%; viability, T/C (second compound 10 µM, first compound 0.00316 µM): 18.2%; viability, T/C (second compound 10 µM, first compound 0.01 µM): 3.8%; viability, T/C [25]: 1.39%; viability, T/C [26]: 1%; viability, T/C [27]: 0.87%; viability, T/C [28]: 1.21%
3 | COc1ccc([C@@H](O)c2cc(-c3ncnc4cc(N5CCOCC5)ccc34)c(F)cc2Cl)nn1 + NC1CCC(NC2CC2c2ccccc2)CC1 | 3.7 | 3.37 | 3.48 | 3.7 | < 0.0316 | 72.7 | 63 | 69.5 | 74.2 | 66.9 | 69.7 | 73.2 | 71.2 | 69.2 | 63.6 | 65.3 | 81.7 | 73.6 | 63.3 | 64 | viability, T/C [5]: 55.8%; viability, T/C [6]: 13.7%; viability, T/C [11]: 52.1%; viability, T/C [12]: 12.6%; viability, T/C [17]: 53.4%; viability, T/C [18]: 11.3%; viability, T/C [22]: 81.5%; viability, T/C [23]: 56.1%; viability, T/C [24]: 11.1%; viability, T/C [25]: 36.9%; viability, T/C [26]: 36.7%; viability, T/C [27]: 36.8%; viability, T/C [28]: 54.3%; viability, T/C [29]: 49%; viability, T/C [30]: 8.03%
